Assay results reported in patent US4198506A, “2-Carboxyalkyl-2,3-dihydro-6-mercapto-s-triazolo[4,3-b]-pyridazin-3-ones” (Bristol-Myers Company, priority 1979, dated 1980).
Where “and” joins values, the source holds several entries; their conditions need not be identical. Identical values can stand only once. Like-named read-outs stand apart in the source and are kept apart here.

Columns and labels:
[1] = system: S. aureus (sensitive); experiment: In vitro activity (geometric mean MIC, serial dilution); format: cell-based; conditions: Staphylococcus aureus, read-out: Geometric Mean MIC
[2] = system: S. aureus (Methicillin-R); experiment: as above; format: cell-based; conditions: Staphylococcus aureus; 15 strains; Mueller-Hinton agar, inoculum 10^4 dilution; MIC cutoff 200 mcg./ml.
[3] = system: D. pneumoniae; experiment: as above; format: cell-based; conditions: Streptococcus pneumoniae; 9 strains; Mueller-Hinton agar, inoculum 10^4 dilution; MIC cutoff 200 mcg./ml.
[4] = system: E. coli (sensitive); experiment: as above; format: cell-based; conditions: Escherichia coli; 13 strains; Mueller-Hinton agar, inoculum 10^4 dilution; MIC cutoff 200 mcg./ml.; read-out: Geometric Mean MIC
[5] = system: E. coli (Penicillinase +); experiment: as above; format: cell-based; conditions: Escherichia coli; 7 strains; Mueller-Hinton agar, inoculum 10^4 dilution; MIC cutoff 200 mcg./ml.; read-out: Geometric Mean MIC
[6] = system: Proteus (indole-); experiment: as above; format: cell-based; conditions: read-out: Geometric Mean MIC
[7] = system: Providencia sp.; experiment: as above; format: cell-based; conditions: 5 strains, Mueller-Hinton agar, inoculum 10^4 dilution, MIC cutoff 200 mcg./ml., read-out: Geometric Mean MIC
[8] = system: Klebsiella sp.; experiment: as above; format: cell-based; conditions: 12 strains, Mueller-Hinton agar, inoculum 10^4 dilution, MIC cutoff 200 mcg./ml., read-out: Geometric Mean MIC
[9] = system: S. marcescens; experiment: as above; format: cell-based; conditions: Serratia marcescens; 16 strains; Mueller-Hinton agar, inoculum 10^4 dilution; MIC cutoff 200 mcg./ml.; read-out: Geometric Mean MIC
[10] = system: E. coli; experiment: In vitro antibacterial activity (Steers' agar dilution MIC); format: cell-based; conditions: Escherichia coli
Description: (§1) In vitro Antibacterial Activity of BB-S493 Compared with
(§2) BB-S479 and Cefamandole (Determined by Steers' Agar Dilu-
(§3) tion Method on Mueller-Hinton Agar Plate)
(§4) In vitro antibacterial activity of BB-S 525 compared with
(§5) BB-S 479 and cefamandole (determined by Steers' agar dilution
(§6) method on Mueller-Hinton agar plate)

[11] = system: Kl. pneumoniae; experiment: as above; format: cell-based; conditions: Klebsiella pneumoniae
Description: as §1, §2, §3, §4, §5, §6

[12] = system: S. aureus; experiment: as above; format: cell-based; conditions: Staphylococcus aureus
Description: as §1, §2, §3, §4, §5, §6

[13] = system: Sal. typhosa; experiment: as above; format: cell-based
Description: as §1, §2, §3, §4, §5, §6

[14] = system: Shig. flexneri; experiment: as above; format: cell-based
Description: as §1, §2, §3, §4, §5, §6

[15] = system: Shig. sonnei; experiment: as above; format: cell-based; conditions: Shigella sonnei
Description: as §1, §2, §3, §4, §5, §6

[16] = system: Pr. vulgaris; experiment: as above; format: cell-based; conditions: Proteus vulgaris, read-out: MIC
[17] = system: Pr. mirabilis; experiment: as above; format: cell-based; conditions: Proteus mirabilis, read-out: MIC
[18] = system: Pr. morganii; experiment: as above; format: cell-based; conditions: Morganella morganii, read-out: MIC
[19] = system: Pr. rettgeri; experiment: as above; format: cell-based; conditions: Providencia rettgeri
[20] = system: Shig. dysenteriae; experiment: as above; format: cell-based; conditions: Shigella dysenteriae
[21] = system: Serr. marcescens; experiment: as above; format: cell-based; conditions: Serratia marcescens
[22] = system: Enterob. cloacae; experiment: as above; format: cell-based; conditions: read-out: MIC
[23] = system: B. anthracis; experiment: microbe, parasite or virus in culture; format: cell-based; conditions: Bacillus anthracis
[24] = system: S. aureus Smith; experiment: In vivo activity (Mice, sc); conditions: several determinations listed
Description: |In vivo Activity of BB-[…] and Related Compounds (Mice, sc) | (PD50 (mgm./kg.)

[25] = system: Miscellaneous (Salmonella, Shigella, Citrobacter); experiment: microbe, parasite or virus in culture; conditions: read-out: Geometric Mean MIC

CNCc1ccccc1CC(=O)N[C@@H]1C(=O)N2C(C(=O)O)=C(CSc3ccc4nn(CC(=O)O)c(=O)n4n3)CS[C@H]12 [BB-S479, 7-[o-(Methylaminomethyl)phenylacetamido]-3-(2-carboxymethyl-2,3-dihydro-s-triazolo[4,3-b]pyridazin-3-on-6-ylthiomethyl)-3-cephem-4-carboxylic Acid]
0.4 µg/mL: MIC ([11]; table 2 (BB-S493), Kl. pneumoniae A9678) | MIC ([12]; table 2 (BB-S493), S. aureus BX-1633 A9606) | MIC ([12]; table 2 (BB-S493), S. aureus Smith A9537) | MIC ([12]; table 4 (BB-S 525), S. aureus Smith) | MIC [25]
> 100 µg/mL: MIC ([18]; table 2 (BB-S493), Pr. morganii A9553) | MIC ([18]; table 4 (BB-S 525), Pr. morganii, 1st line)
12.5 µg/mL: MIC ([14]; Shigella flexneri, table 2 (BB-S493), Shig. flexneri A9684, read-out: MIC) | MIC ([14]; table 4 (BB-S 525), Shig. flexneri) | MIC ([21]; table 4 (BB-S 525), Serr. marcescens)
0.025 µg/mL: MIC ([15]; table 2 (BB-S493), Shig. sonnei A9516) | MIC ([20]; table 2 (BB-S493), Shig dysenteriae) | MIC ([23]; table 2 (BB-S493), B. anthracis A9504)
25 µg/mL: MIC ([21]; table 2 (BB-S493), Serr. marcescens A20019, read-out: MIC)
0.6 µg/mL: MIC [8]
4.2 µg/mL: MIC [7]
0.1 µg/mL: MIC ([10]; table 2 (BB-S493), E. coli A15810, read-out: MIC) | MIC ([10]; table 2 (BB-S493), E. coli Juhl A15119, read-out: MIC) | MIC ([10]; table 4 (BB-S 525), E. coli NIHJ, read-out: MIC) | MIC ([10]; table 4 (BB-S 525), E. coli, strain not given, 1st line, read-out: MIC) | MIC ([11]; table 2 (BB-S493), Kl. pneumoniae A9867) | MIC ([11]; table 2 (BB-S493), Kl. pneumoniae A9977) | MIC ([11]; table 2 (BB-S493), Kl. pneumoniae A15130) | MIC ([11]; table 4 (BB-S 525), Kl. pneumoniae, 2nd line) | MIC ([12]; table 2 (BB-S493), S. aureus A9497) | MIC ([13]; table 4 (BB-S 525), Sal. typhosa) | MIC ([15]; table 4 (BB-S 525), Shig. sonnei) | MIC ([16]; table 2 (BB-S493), Pr. vulgaris A9436) | MIC ([17]; table 2 (BB-S493), Pr. mirabilis A9554) | MIC ([17]; table 2 (BB-S493), Pr. mirabilis A9900) | MIC ([17]; table 4 (BB-S 525), Pr. mirabilis, 1st line) | MIC ([17]; table 4 (BB-S 525), Pr. mirabilis, 2nd line) | MIC ([18]; table 2 (BB-S493), Pr. morganii A20031) | MIC ([19]; table 2 (BB-S493), Pr. rettgeri A15167) | MIC ([20]; table 4 (BB-S 525), Shig. dysenteriae)
0.12 mgm./kg. and 0.2 mgm./kg.: PD50 [24]
0.5 µg/mL: MIC [6]
1.6 µg/mL: MIC ([22]; table 2 (BB-S493), Enterob. cloacae A9656)
35 µg/mL: MIC [2] | MIC [9]
0.16 mg/kg: ED50 ([24]; Staphylococcus aureus, read-out: PD50)
0.3 µg/mL: MIC [1]
0.8 µg/mL: MIC ([11]; table 4 (BB-S 525), Kl. pneumoniae, 1st line) | MIC ([12]; table 4 (BB-S 525), S. aureus BX-1633) | MIC ([16]; table 2 (BB-S493), Pr. vulgaris A9699) | MIC ([16]; table 4 (BB-S 525), Pr. vulgaris, 2nd line) | MIC ([19]; table 4 (BB-S 525), Pr. rettgeri)
0.2 µg/mL: MIC [4] | MIC ([10]; table 2 (BB-S493), E. coli BX-1373, read-out: MIC) | MIC ([10]; table 4 (BB-S 525), E. coli BX-1373, read-out: MIC) | MIC ([10]; table 4 (BB-S 525), E. coli Juhl, read-out: MIC) | MIC ([11]; table 4 (BB-S 525), Kl. pneumoniae, 3rd line) | MIC ([11]; table 4 (BB-S 525), Kl. pnuemoniae, 4th line) | MIC ([12]; table 4 (BB-S 525), S. aureus (strain not given)) | MIC ([16]; table 4 (BB-S 525), Pr. vulgaris, 1st line) | MIC ([18]; table 4 (BB-S 525), Pr. morganii, 2nd line) | MIC ([23]; table 4 (BB-S 525), B. anthracis)
2.6 µg/mL: MIC [5]
0.05 µg/mL: MIC ([10]; ATCC8739, table 2 (BB-S493), E. coli ATCC 8739, read-out: MIC) | MIC ([10]; table 2 (BB-S493), E. coli A9660, read-out: MIC) | MIC ([10]; table 2 (BB-S493), E. coli NIHJ, read-out: MIC) | MIC ([10]; table 4 (BB-S 525), E. coli, strain not given, 2nd line, read-out: MIC) | MIC ([13]; table 2 (BB-S493), Sal. typhosa A9498)
3.1 µg/mL: MIC ([10]; ATCC8739, table 4 (BB-S 525), E. coli ATCC 8739) | MIC ([10]; table 2 (BB-S493), E. coli A15147, read-out: MIC) | MIC ([10]; table 4 (BB-S 525), E. coli, strain not given, 3rd line, read-out: MIC) | MIC ([22]; table 4 (BB-S 525), Enterob. cloacae)
0.04 µg/mL: MIC [3]
